Tests used:
[1] = penetration depth of MB solutions into normal oral mucosa; conditions: after 10-min incubation time
Text: The clinical application of PDT is possible since the stain solutions selectively color cell systems, while the interaction with the epithelium is very limited. […] Furthermore, the life expectancy of the active radicals and their precursors is microseconds, so that it is practically assured that there are no concomitant destructive effects in healthy tissue due to diffusion, since there is not enough time for this.

[2] = system: all examined microorganisms; experiment: in vitro reduction of microorganisms by methylene blue solutions in culture medium; format: cell-based; conditions: culture medium being used
Gram positive bacteria = experiment: in vitro reduction of Gram positive bacteria by methylene blue solutions; format: cell-based
Text: Methylene blue solutions reduce almost all Gram positive bacteria in a concentration of 25-44 μmol in vitro.

P. aeruginosa = experiment: photodynamic reduction of P. aeruginosa; format: cell-based; conditions: concentration of 200˜mol; energy density of 100 mW/cm^2
Text: (§1) Completely reducing Gram negative germs requires 3-30 times higher concentrations. P. aeruginosa was reduced […] by 3.5 log10 CFU at a concentration of 200˜mol and an energy density of 100 mW/cm^2.

colon tumors = conditions: 20 μg/mL, intratumorally applied, without irradiation; cited from earlier work
Gram negative germs = experiment: complete reduction of Gram negative germs; format: cell-based; conditions: compared with 25-44 μmol for Gram positive bacteria
Text: as §1

[3] = distribution coefficient P; format: physicochemical
[4] = system: Gram positive and Gram negative bacteria; experiment: dark toxicity of the stains for bacteria; format: cell-based; conditions: TB compared with MB, without irradiation
Protocol: The observed dark toxicity was higher for toluidine blue (TB) than for methylene blue (MB). This is consistent with the distribution coefficient P that was determined to be 0.33 for TB and 0.11 for MB.
While dark toxicity for Gram positive bacteria was nearly unrelated to type, the dark toxicity for Gram negative bacteria is quite clearly a function of type and specifically corresponds to the trans-membrane permeability coefficient of the exterior membrane of Gram negative bacteria.
Dark toxicity was a function of both the concentration and the incubation period prior to irradiation.

| SMILES | penetration depth into the epithelium [1] | reduction of the number of microorganisms in the culture medium [2] | concentration that reduces almost all Gram positive bacteria (Gram positive bacteria) | reduction of P. aeruginosa (P. aeruginosa) | destruction of colon tumors by the substance alone (colon tumors) | concentration needed for completely reducing Gram negative germs, relative to Gram positive bacteria (Gram negative germs) | distribution coefficient P [3] | observed dark toxicity [4] |
| --- | --- | --- | --- | --- | --- | --- | --- | --- |
| CN(C)c1ccc2nc3ccc(=[N+](C)C)cc-3sc2c1 [Methylene blue, phenothiazin-5-ium, 3,7-bis(dimethylamino)-chloride] | 1-2 exterior layers of cells | able to reduce the number of all examined microorganisms | 25 to 44 µmol | 3.5 log10 CFU | not destroyed | 3-30 times higher | – | – |
| Cc1cc2nc3ccc(N(C)C)cc3[s+]c2cc1N.[Cl-] [TB, toluidine blue] | – | – | – | – | – | – | 0.33 | higher |
